Patent US8178506B2, “Oligomeric compounds and compositions for use in modulation of small non-coding RNAs” (Regulus Therapeutics Inc., priority 2003, dated 2012)
In the oligonucleotide strings, read from the 5' end, every base follows the letter of its sugar. An asterisk marks phosphorothioate; unmarked linkages are phosphodiester. Other units and linkages are bracketed, terminal groups are in braces. A string of capitals states the bases alone. e = 2'-O-(2-methoxyethyl) (MOE); [5mC] = 5-methylcytosine

Tests used:
[1] = tested on: PEPCK-c; experiment: PEPCK-c mRNA expression in HepG2 cells; assay type: cell-based, human; settings: 100 nM; for decrease in PEPCK-c mRNA: HepG2, basal (no insulin)
Description: Approximately 28 hours after transfection, the cells are subjected to serum starvation for a period of 12 to 16 hours, using serum-free growth medium. Following serum starvation, cells are treated with 1 nM insulin (insulin-treated) or are left untreated (basal conditions) for approximately four hours. At the same time, untreated control cells in both plates are treated with 100 nM insulin to determine the maximal insulin response. Following insulin treatment (forty-eight hours after transfection), total RNA is harvested from all samples, and the amount of total RNA from each sample is determined using a Ribogreen assay (Invitrogen Corporation, Carlsbad, Calif.). Real-time PCR is performed on the total RNA samples using primer/probe sets for three insulin responsive genes: insulin-like growth factor binding protein-1 (IGFBP-1), cytosolic PEPCK (PEPCK-C), and follistatin. Gene expression levels obtained by real-time PCR are normalized for total RNA content in the samples.
Oligomeric compounds of the present invention were tested for their effects on insulin signaling in HepG2 cells. HepG2 cells were plated at 7500 cells/well in collagen coated 96-well plates. The following day, cells were transfected with oligomeric compounds targeting miRNAs using 100 nM oligomeric compound in LIPOFECTIN™ (Invitrogen Corporation, Carlsbad, Calif.) in two 96-well plates. The oligomeric compounds were tested in triplicate on each 96-well plate, except for positive and negative controls, which were measured up to six times per plate. At the end of transfection, the transfection medium was replaced by regular growth medium. Twenty-eight hours post-transfection, the cells were subjected to overnight (sixteen to eighteen hours) serum starvation using serum free growth medium. Forty-four hours post-transfection, the cells in the transfected wells were treated with either no insulin (“basal” Experiment 1, for identification of insulin-mimetic compounds) or with 1 nM insulin (“insulin treated” Experiment 2, for identification of insulin sensitizers) for four hours. At the same time, in both plates, cells in some of the un-transfected control wells are treated with 100 nM insulin to determine maximal insulin response. At the end of the insulin or no-insulin treatment (forty-eight hours post-transfection), total RNA is isolated from both the basal and insulin treated (1 nM) 96-well plates, and the amount of total RNA from each sample is determined using a Ribogreen assay (Molecular Probes, Eugene, Oreg.). Real-time PCR is performed on all the total RNA samples using primer/probe sets for three insulin responsive genes: PEPCK-c, IGFBP-1 and follistatin. Expression levels for each gene are normalized to total RNA, and values+standard deviation are expressed relative to the transfectant only untreated control (UTC) and negative control compounds.
Protocols for treatment of HepG2 cells and transfection of oligomeric compounds are as described in Example 18. Also as described in Example 18, forty-four hours post-transfection, the cells in the transfected wells were treated with either no insulin (“basal” Experiment 3 (below), for identification of insulin-mimetic compounds) or with 1 nM insulin (“insulin treated” Experiment 4 (below), for identification of insulin sensitizers) for four hours. At the same time, in both plates, cells in some of the un-transfected control wells are treated with 100 nM insulin to determine maximal insulin response. At the end of the insulin or no-insulin treatment (forty-eight hours post-transfection), total RNA is isolated from both the basal and insulin treated (1 nM) 96-well plates, and the amount of total RNA from each sample is determined using a Ribogreen assay (Molecular Probes, Eugene, Oreg.).

[2] = tested on: HuVECs; experiment: Endothelial tube formation assay in HuVECs; settings: for tube formation: 75 nM; for % Activity Relative to UTC (tube formation): 75 nM oligomeric compound
[3] = tested on: BJ, B16-F10, T47D, T47Dp53 and HeLa cells; experiment: Cell cycle assay (propidium iodide flow cytometry), cell line panel; assay type: cell-based; settings: 150 nM oligomeric compound, 4.5 μg/ml LIPOFECTIN, after 72 hours, propidium iodide flow cytometry
[4] = tested on: HeLa cells; experiment: Cell cycle assay in HeLa cells; assay type: cell-based, human; settings: HeLa cells, 150 nM oligomeric compound
[5] = tested on: IL-12 mRNA; experiment: IL-12 mRNA in LPS-activated primary murine macrophages; assay type: cell-based, mouse; settings: normalized to LPS-treated cells without oligomeric compound
Description: To investigate the role of miRNAs in the immune response, oligomeric compounds of the present invention targeting miRNAs were tested for their effects upon lipopolysaccharide (LPS)-activated primary murine macrophages. Macrophages participate in the immune response, for example, in the recognition and phagocytosis of microorganisms, including bacteria. Interferon-gamma (IFN-gamma) released by helper T cells is one type of signal required for macrophage activation, and LPS can serve as an additional stimulus. LPS is a component of the gram-negative bacterial cell wall and acts as an agonist for toll-like receptor 4 (TLR4), the primary LPS receptor expressed by macrophages. The proinflammatory cytokines interleukin-12 (IL-12) and interleukin-6 (IL-6) are induced by LPS treatment of macrophages, thus the expression of the mRNAs encoding these cytokines was used to evaluate the response of macrophages to LPS following treatment with oligomeric compounds targeting miRNAs.
Macrophages were isolated as follows. Female C57B1/6 mice (Charles River Laboratories, Wilmington, Mass.) were injected intraperitoneally with 1 ml 3% thioglycollate broth (Sigma-Aldrich, St. Louis, Mo.), and peritoneal macrophage cells were isolated by peritoneal lavage 4 days later. The cells were plated in 96-well plates at 40,000 cells/well for one hour in serum-free RPMI adjusted to contain 10 mM HEPES (Invitrogen Life Technologies, Carlsbad, Calif.), allowed to adhere, then non-adherent cells were washed away and the media was replaced with RPMI containing 10 mM HEPES, 10% FBS and penicillin/streptomycin (“complete” RPMI; Invitrogen Life Technologies, Carlsbad, Calif.).
Oligomeric compounds were introduced into the cells using the non-liposomal transfection reagent FuGENE 6 Transfection Reagent (Roche Diagnostics Corp., Indianapolis, Ind.). Oligomeric compound was mixed with FuGENE 6 in 1 mL of serum-free RPMI to achieve a concentration of 10 μL FuGENE per 1000 nM oligomeric compound. The oligomeric compound/FuGENE complex was allowed to form at room temperature for 20 minutes. This mixture was diluted to the desired concentration of oligomeric compound by the addition of the appropriate volume of complete RPMI. The final ratio of FuGENE 6 to oligomeric compound was 1 μL of FuGENE 6 per 100 nM oligomeric compound. A volume of 100 μL of oligomeric compound/FuGENE/RPMI was added to each well of the 96-well plate in which the macrophages were cultured. Each oligomeric compound treatment was repeated in triplicate.
Following oligomeric compound treatment, cells were stimultated with LPS. Cells were cultured in the presence of the transfection complex for approximately 24 to 28 hours at 37° C. and 5% CO2, after which the medium containing the transfection complex was removed from the cells, and complete RPMI containing 100 ng/mL LPS (Sigma-Aldrich Corp., St. Louis, Mo.) was added to the cells for a period of approximately 24 hours. Control samples included (1) cells receiving no oligomeric compound, stimulated with LPS and (2) cells receiving neither oligomeric compound nor LPS treatment.
In another embodiment, following oligomeric compound treatment, cells were first activated by IFN-gamma, to amplify the response to LPS. Cells were cultured in the presence of the transfection complex for approximately 24 hours at 37° C. and 5% CO2, at which point the medium containing the transfection complex was removed from the cells, and complete RPMI containing 100 ng/mL recombinant mouse IFN-gamma (R&D Systems, Minneapolis, Minn.) was added to the cells. After the 4 hour treatment with INF-gamma, cells were treated with 100 ng/mL LPS for approximately 24 hours. Control samples included (1) cells receiving no oligomeric compound, stimulated with LPS and (2) cells receiving neither oligomeric compound nor LPS treatment. […]

[6] = tested on: adipocytes; experiment: Triglyceride accumulation assay in adipocytes; assay type: cell-based, human; settings: differentiating adipocytes transfected with oligomeric compound
[7] = tested on: aP2; experiment: aP2 mRNA expression in adipocytes (real-time PCR); assay type: cell-based, human; settings: differentiating adipocytes transfected with oligomeric compound
[8] = tested on: HSL; experiment: HSL mRNA expression in adipocytes (real-time PCR); assay type: cell-based, human; settings: differentiating adipocytes transfected with oligomeric compound
[9] = tested on: Glut4; experiment: Glut4 mRNA expression in adipocytes (real-time PCR); assay type: cell-based, human; settings: differentiating adipocytes transfected with oligomeric compound
[10] = tested on: PPARγ; experiment: PPARγ mRNA expression in adipocytes (real-time PCR); assay type: cell-based, human; settings: differentiating adipocytes transfected with oligomeric compound
[11] = 24 hours, relative to untreated control (UTC = 100)
[12] = 48 hours after treatment, relative to untreated control (UTC=100)

Substance | decrease in PEPCK-c mRNA [1] [%] | tube formation [2] | G1 (percentage of cells in phase of the cell cycle) [3] [%] | G2/M (percentage of cells in phase of the cell cycle) [3] [%] | S (percentage of cells in phase of the cell cycle) [3] [%] | SubG1 (percentage of cells in phase of the cell cycle) [3] [%] | aneuploid (percentage of cells) [3] [%] | % Activity Relative to UTC (tube formation) ([2]; Table 57) [%] | TG (triglyceride accumulation) [6] | AP2 mRNA [7] | HSL mRNA [8] | GLUT4 mRNA [9] | PPAR gamma mRNA [10] | also measured
GAGACCCAGTAGCCAGATGTAGCT (chemistry not given here) [ISIS 327920] | 48 | suppressed tube formation |  |  |  |  |  |  |  |  |  |  |  | reduction of PEPCK-c mRNA expression ([1]; HepG2, 1 nM insulin): 41%
327908 (antisense e[5mC]*eA*eA*eT*eG*e[5mC]*eA*eA*e[5mC]*eT*eA*e[5mC]*eA*eA*eT*eG*e[5mC]*eA*e[5mC]) [compound 327908] |  |  | 55.4 | 15.3 | 29.2 | 5.6 | 13.1 | 103.5 |  |  |  |  |  | % cells aneuploid [4, 11]: 114%; % cells in cell cycle phase G1 [4, 11]: 98%; % cells in cell cycle phase G2/M [4, 11]: 106%; % cells in cell cycle phase S [4, 11]: 99%; % cells in cell cycle phase subG1 [4, 11]: 138%; % cells in cell cycle phase: G1 [4, 12]: 99%; % cells in cell cycle phase: G2/M [4, 12]: 105%; % cells in cell cycle phase: S [4, 12]: 98%; % cells in cell cycle phase: aneuploid [4, 12]: 93%; % cells in cell cycle phase: subG1 [4, 12]: 61%
CGCGTACCAAAAGTAATAATG (anti-miR; chemistry not fully specified) [ISIS 327886] | 39 | suppressed tube formation |  |  |  |  |  |  |  |  |  |  |  | 
327883 (antisense e[5mC]*eA*eG*eA*eA*e[5mC]*eT*eT*eA*eG*e[5mC]*e[5mC]*eA*e[5mC]*eT*eG*eT*eG*eA*eA) [compound 327883] |  |  |  |  |  |  |  |  |  |  |  |  |  | IL-12 mRNA expression, −IFN % UTC ([5]; 300 nM oligomeric compound and LPS, no IFN-gamma pretreatment, single experiment): 266 % UTC; IL-12 mRNA expression, +IFN % UTC ([5]; 300 nM oligomeric compound, stimulation with IFN-gamma and LPS, average of 2 experiments): 39 % UTC; % Activity Relative to UTC (tube formation) ([2]; Table 56): 92.9%
327914 (antisense eG*e[5mC]*e[5mC]*e[5mC]*eT*eT*eT*eT*eA*eA*e[5mC]*eA*eT*eT*eG*e[5mC]*eA*e[5mC]*eT*eG) [compound 327914] |  |  | 55.8 | 15.3 | 28.9 | 8.5 | 16.2 | 82.8 |  |  |  |  |  | 
327909 (antisense e[5mC]*e[5mC]*e[5mC]*eA*eA*e[5mC]*eA*eA*e[5mC]*eA*eT*eG*eA*eA*eA*e[5mC]*eT*eA*e[5mC]*e[5mC]*eT*eA) [compound 327909] |  |  | 52.6 | 17.3 | 30.1 | 7.9 | 16.3 | 96.6 | 132 percentage of untreated control (UTC) | 88 percentage of untreated control (UTC) | 130 percentage of untreated control (UTC) | 132 percentage of untreated control (UTC) | 96 percentage of untreated control (UTC) | 
CAGTGAATTCTACCAGTGCCATA (anti-miR; chemistry not fully specified) [ISIS 327899] | 58 | suppressed tube formation |  |  |  |  |  |  |  |  |  |  |  | 
327937 (antisense eG*eA*eT*eT*e[5mC]*eA*e[5mC]*eA*eA*e[5mC]*eA*e[5mC]*e[5mC]*eA*eG*e[5mC]*eT) [compound 327937] |  |  |  |  |  |  |  |  | 81 percentage of untreated control (UTC) | 76 percentage of untreated control (UTC) | 77 percentage of untreated control (UTC) | 63 percentage of untreated control (UTC) | 92 percentage of untreated control (UTC) | % Activity Relative to UTC (tube formation) ([2]; Table 58): 88.9%
327953 (antisense eA*eG*eA*eA*eT*eT*eG*e[5mC]*eG*eT*eT*eT*eG*eG*eA*e[5mC]*eA*eA*eT*e[5mC]*eA) [compound 327953] |  |  |  |  |  |  |  |  | 94 percentage of untreated control (UTC) | 92 percentage of untreated control (UTC) | 94 percentage of untreated control (UTC) | 112 percentage of untreated control (UTC) | 90 percentage of untreated control (UTC) | % Activity Relative to UTC (tube formation) ([2]; Table 59): 53.3%
